Experiments:
Experiment in all cases: kinobeads assay with mass spectrometry detection of kinases (kinase selectivity profile)
Type in all cases: binding
[1] = target: T1, kinases (kinome) (Homo sapiens, UniProt Q9Y2K2); settings: QSK (CAMK), IPI00657720
T1 construct: determined in kinobeads assays with mass spectrometry detection of kinases as described previously; endogenous in cells; host or cells: cell lysate
Source text: (§1) The protein kinase complement of the human genome (the kinome) was described previously (Manning et al., 2002. Science 298(5600):1912-1934). Sequence accession numbers are defined by the International Protein Index (IPI) (Kersey et al., 2004. Proteomics 4(7):1985-1988).

[2] = target: T2, kinases (kinome) (Homo sapiens, UniProt P36896); settings: ALK4 (TKL), IPI00005732
T2 construct: determined in kinobeads assays with mass spectrometry detection of kinases as described previously; endogenous in cells; host or cells: cell lysate
T2 sequence (P36896 24-505): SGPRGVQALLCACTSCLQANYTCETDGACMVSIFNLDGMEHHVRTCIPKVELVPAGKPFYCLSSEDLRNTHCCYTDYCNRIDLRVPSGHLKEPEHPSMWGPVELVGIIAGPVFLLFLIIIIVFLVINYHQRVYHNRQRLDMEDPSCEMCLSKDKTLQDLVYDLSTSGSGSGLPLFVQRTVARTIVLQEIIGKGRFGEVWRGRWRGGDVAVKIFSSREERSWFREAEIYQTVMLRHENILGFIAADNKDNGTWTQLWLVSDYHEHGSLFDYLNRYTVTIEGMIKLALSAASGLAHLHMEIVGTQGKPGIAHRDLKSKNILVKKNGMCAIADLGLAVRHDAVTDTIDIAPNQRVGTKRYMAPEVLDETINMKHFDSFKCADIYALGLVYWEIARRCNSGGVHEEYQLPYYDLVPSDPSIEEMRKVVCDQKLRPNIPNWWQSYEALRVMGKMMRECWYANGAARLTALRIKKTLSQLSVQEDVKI
Source text: as §1

[3] = target: T3, kinases (kinome) (Homo sapiens, UniProt Q96L34); settings: MARK4 (CAMK), IPI00064797
T3 construct: determined in kinobeads assays with mass spectrometry detection of kinases as described previously; endogenous in cells; host or cells: cell lysate
T3 sequence (Q96L34 1-752): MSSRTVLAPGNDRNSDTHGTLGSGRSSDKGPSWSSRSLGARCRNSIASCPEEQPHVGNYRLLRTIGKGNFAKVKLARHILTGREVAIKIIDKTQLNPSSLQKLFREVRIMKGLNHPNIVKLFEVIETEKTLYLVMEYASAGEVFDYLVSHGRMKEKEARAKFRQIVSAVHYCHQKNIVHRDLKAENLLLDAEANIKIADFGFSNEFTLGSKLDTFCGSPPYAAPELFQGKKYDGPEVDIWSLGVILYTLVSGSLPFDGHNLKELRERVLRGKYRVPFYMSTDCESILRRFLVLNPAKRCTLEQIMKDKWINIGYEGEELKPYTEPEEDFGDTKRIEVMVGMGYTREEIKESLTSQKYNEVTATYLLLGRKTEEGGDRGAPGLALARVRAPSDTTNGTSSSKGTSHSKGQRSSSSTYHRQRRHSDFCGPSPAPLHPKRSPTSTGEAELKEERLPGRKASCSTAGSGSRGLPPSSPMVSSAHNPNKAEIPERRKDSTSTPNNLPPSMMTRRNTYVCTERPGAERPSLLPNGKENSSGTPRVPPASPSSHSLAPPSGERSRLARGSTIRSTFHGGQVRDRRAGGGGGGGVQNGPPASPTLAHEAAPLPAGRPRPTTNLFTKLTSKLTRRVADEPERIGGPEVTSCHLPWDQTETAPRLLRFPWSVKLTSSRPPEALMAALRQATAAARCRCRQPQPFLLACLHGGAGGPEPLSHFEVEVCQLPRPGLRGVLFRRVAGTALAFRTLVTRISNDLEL
Source text: as §1

[4] = target: T4, kinases (kinome) (Homo sapiens, UniProt P45984); settings: JNK2 (CMGC), IPI00303550
T4 construct: determined in kinobeads assays with mass spectrometry detection of kinases as described previously; endogenous in cells; host or cells: cell lysate
Source text: as §1

[5] = target: T5, kinases (kinome) (Homo sapiens, UniProt Q13131); settings: AMPKa1 (CAMK), IPI00410287
T5 construct: determined in kinobeads assays with mass spectrometry detection of kinases as described previously; endogenous in cells; host or cells: cell lysate
Source text: as §1

[6] = target: T6, kinases (kinome) (Homo sapiens, UniProt Q8NI60); settings: ADCK3 (Atypical), IPI00176469
T6 construct: determined in kinobeads assays with mass spectrometry detection of kinases as described previously; endogenous in cells; host or cells: cell lysate
Source text: as §1

[7] = target: T7, kinases (kinome) (Homo sapiens, UniProt P10398); settings: ARAF (TKL), IPI00020578
T7 construct: determined in kinobeads assays with mass spectrometry detection of kinases as described previously; endogenous in cells; host or cells: cell lysate
T7 sequence (P10398 1-606): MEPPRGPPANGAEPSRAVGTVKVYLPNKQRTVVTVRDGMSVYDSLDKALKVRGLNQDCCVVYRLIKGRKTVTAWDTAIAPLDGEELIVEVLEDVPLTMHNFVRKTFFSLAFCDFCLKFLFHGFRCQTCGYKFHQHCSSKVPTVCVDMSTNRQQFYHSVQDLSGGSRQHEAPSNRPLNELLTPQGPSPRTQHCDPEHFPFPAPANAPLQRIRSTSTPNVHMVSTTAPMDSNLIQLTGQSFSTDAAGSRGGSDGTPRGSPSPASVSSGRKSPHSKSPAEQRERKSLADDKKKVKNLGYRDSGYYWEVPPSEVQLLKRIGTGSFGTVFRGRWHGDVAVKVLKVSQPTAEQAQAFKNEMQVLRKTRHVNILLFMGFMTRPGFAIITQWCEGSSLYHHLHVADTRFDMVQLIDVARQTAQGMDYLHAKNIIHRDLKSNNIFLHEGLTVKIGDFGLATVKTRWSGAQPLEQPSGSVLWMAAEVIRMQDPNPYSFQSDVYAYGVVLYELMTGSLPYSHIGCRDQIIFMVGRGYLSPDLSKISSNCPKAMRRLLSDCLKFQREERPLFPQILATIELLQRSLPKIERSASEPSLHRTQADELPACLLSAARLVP
Source text: as §1

[8] = target: T8, kinases (kinome) (Homo sapiens, UniProt P24941); settings: CDK2 (CMGC), IPI00031681
T8 construct: determined in kinobeads assays with mass spectrometry detection of kinases as described previously; endogenous in cells; host or cells: cell lysate
Source text: as §1

[9] = target: T9, kinases (kinome) (Homo sapiens, UniProt P28482); settings: Erk2 (CMGC), IPI00003479
T9 construct: determined in kinobeads assays with mass spectrometry detection of kinases as described previously; endogenous in cells; host or cells: cell lysate
Source text: as §1

[10] = target: T10, kinases (kinome) (Homo sapiens, UniProt Q05397); settings: FAK (TK), IPI00413961
T10 construct: determined in kinobeads assays with mass spectrometry detection of kinases as described previously; endogenous in cells; host or cells: cell lysate
Source text: as §1

Measured: IC50

T9 sequence (P28482 whole entry): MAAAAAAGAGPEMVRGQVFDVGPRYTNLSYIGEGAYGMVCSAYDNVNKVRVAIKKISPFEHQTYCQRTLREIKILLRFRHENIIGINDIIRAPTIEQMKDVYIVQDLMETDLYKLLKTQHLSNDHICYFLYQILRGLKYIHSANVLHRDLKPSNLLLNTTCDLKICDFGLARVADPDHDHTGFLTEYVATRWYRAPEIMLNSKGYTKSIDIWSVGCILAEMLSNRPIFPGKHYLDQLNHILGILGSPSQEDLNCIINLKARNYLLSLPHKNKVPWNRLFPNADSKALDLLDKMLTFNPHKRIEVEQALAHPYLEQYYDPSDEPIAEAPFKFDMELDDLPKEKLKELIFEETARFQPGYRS
T5 sequence (Q13131 whole entry): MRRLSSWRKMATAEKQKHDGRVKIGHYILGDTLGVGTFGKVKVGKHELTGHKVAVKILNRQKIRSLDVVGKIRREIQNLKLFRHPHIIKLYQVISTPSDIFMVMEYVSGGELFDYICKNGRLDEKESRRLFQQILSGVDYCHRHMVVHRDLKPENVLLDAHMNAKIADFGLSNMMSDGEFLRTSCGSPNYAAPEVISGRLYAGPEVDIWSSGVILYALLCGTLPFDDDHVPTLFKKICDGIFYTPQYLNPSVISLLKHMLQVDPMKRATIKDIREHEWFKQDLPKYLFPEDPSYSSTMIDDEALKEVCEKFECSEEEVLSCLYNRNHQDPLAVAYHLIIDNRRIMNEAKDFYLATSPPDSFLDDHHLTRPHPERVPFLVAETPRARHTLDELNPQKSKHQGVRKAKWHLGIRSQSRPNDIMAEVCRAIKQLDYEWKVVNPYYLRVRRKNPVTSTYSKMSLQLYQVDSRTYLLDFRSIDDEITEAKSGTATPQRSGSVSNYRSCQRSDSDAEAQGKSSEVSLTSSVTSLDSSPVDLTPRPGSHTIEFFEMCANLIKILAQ
T1 sequence (Q9Y2K2 whole entry): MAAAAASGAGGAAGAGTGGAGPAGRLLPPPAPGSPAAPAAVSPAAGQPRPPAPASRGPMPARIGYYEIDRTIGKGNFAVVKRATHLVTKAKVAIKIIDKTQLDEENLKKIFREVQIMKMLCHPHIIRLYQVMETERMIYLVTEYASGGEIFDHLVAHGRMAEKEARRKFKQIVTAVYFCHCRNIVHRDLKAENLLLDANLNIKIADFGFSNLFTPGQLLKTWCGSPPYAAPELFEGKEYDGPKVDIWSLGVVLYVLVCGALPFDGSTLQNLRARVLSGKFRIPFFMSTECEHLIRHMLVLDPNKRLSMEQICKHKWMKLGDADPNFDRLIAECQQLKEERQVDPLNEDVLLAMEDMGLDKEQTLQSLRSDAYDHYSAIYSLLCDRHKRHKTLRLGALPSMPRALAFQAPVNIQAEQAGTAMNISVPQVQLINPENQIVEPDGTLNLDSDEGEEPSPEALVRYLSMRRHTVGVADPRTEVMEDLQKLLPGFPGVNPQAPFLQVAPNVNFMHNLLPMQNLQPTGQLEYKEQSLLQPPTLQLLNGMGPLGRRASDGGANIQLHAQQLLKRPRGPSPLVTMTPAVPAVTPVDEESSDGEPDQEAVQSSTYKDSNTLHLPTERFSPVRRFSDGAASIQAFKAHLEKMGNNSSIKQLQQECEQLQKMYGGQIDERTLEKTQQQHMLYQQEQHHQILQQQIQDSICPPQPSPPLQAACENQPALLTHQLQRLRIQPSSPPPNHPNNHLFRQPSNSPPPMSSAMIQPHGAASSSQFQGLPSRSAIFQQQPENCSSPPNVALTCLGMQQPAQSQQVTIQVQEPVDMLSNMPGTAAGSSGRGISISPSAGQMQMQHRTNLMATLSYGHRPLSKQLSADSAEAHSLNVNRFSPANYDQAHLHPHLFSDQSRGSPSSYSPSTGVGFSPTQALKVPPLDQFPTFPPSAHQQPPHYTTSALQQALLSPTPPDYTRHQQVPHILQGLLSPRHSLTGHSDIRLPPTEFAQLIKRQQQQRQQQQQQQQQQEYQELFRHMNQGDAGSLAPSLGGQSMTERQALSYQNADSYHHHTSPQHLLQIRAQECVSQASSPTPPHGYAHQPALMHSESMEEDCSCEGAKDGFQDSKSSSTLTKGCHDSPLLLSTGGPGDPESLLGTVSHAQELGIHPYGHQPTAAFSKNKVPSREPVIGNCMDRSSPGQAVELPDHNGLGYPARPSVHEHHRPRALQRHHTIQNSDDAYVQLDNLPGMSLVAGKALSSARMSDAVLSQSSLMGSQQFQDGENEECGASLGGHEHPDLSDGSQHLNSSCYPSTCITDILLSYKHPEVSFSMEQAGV
T4 sequence (P45984 whole entry): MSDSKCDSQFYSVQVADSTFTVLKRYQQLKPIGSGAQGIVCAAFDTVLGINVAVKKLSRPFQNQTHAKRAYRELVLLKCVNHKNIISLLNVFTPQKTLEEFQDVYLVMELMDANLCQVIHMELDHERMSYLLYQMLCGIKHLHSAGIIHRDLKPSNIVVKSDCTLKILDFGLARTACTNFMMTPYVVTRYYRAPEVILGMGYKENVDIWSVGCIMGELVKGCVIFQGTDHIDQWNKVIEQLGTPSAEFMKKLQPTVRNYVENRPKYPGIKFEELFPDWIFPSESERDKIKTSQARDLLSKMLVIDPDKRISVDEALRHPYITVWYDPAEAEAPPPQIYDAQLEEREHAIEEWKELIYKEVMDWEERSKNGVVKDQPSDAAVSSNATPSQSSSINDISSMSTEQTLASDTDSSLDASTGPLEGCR
T10 sequence (Q05397 whole entry): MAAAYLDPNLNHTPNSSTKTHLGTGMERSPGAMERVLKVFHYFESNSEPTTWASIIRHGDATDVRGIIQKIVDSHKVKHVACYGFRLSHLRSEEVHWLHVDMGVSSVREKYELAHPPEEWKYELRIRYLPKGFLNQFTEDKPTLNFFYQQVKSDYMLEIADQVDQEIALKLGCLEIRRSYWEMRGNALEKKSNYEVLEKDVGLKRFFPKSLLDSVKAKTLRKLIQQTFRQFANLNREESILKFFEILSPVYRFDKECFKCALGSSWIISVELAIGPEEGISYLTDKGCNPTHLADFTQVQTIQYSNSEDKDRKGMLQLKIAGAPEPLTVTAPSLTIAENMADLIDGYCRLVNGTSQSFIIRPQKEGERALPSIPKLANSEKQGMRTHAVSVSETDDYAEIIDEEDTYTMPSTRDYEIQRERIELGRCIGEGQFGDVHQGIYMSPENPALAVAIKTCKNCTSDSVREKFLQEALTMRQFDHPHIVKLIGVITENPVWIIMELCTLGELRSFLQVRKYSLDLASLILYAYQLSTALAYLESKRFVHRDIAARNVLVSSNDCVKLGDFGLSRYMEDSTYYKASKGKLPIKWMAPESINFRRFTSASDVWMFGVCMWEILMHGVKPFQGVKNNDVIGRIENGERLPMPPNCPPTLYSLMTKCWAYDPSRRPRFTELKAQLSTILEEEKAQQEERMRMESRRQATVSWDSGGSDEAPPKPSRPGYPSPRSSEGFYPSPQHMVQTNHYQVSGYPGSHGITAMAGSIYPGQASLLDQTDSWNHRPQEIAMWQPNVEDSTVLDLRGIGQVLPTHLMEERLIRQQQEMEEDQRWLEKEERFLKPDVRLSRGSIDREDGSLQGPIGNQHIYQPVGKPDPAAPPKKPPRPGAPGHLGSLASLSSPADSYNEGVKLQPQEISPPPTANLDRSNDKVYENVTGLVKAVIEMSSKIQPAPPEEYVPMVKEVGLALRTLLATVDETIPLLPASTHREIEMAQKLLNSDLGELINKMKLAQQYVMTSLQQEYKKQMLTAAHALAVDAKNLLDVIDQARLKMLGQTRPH
T6 sequence (Q8NI60 163-647): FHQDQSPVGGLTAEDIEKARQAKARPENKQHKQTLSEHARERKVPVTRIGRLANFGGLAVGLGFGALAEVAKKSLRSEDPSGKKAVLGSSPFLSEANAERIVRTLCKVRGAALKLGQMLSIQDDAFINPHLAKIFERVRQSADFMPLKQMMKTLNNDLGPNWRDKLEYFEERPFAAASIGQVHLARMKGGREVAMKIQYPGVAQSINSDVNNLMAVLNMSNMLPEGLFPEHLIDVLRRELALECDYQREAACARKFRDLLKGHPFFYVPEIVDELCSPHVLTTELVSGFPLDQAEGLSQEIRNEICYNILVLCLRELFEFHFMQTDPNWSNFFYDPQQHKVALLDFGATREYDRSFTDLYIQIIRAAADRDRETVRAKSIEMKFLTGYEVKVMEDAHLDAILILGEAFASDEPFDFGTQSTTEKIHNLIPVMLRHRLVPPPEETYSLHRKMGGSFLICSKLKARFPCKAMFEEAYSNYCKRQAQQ

C[C@H]1COCCN1c1nc(-c2ccc(NC(=O)NC3CC3)cc2)cc(-c2ccccc2S(C)(=O)=O)n1 [Example 4, (S)-1-cyclopropyl-3-(4-(2-(3-methylmorpholino)-6-(2-(methylsulfonyl)phenyl)pyrimidin-4-yl)phenyl)urea]
> 10 µM: all assays above

C[C@H]1COCCN1c1cc(-c2ccccc2S(C)(=O)=O)nc(-c2ccc(NC(=O)NC3CC3)cc2)n1 [Example 6, (S)-1-cyclopropyl-3-(4-(4-(3-methylmorpholino)-6-(2-(methylsulfonyl)phenyl)pyrimidin-2-yl)phenyl)urea]
> 10 µM: all assays above

CCNC(=O)Nc1ccc(-c2cc(-c3ccccc3C#N)nc(N3CCOC[C@@H]3C)n2)cc1 [Example 8, (S)-1-(4-(6-(2-cyanophenyl)-2-(3-methylmorpholino)pyrimidin-4-yl)phenyl)-3-ethylurea]
> 10 µM: all assays above

C[C@H]1COCCN1c1nc(-c2ccc(NC(=O)NC3CC3)cc2)cc(-c2cc(F)ccc2S(C)(=O)=O)n1 [Example 40, (S)-1-cyclopropyl-3-(4-(6-(5-fluoro-2-(methylsulfonyl)phenyl)-2-(3-methylmorpholino)pyrimidin-4-yl)phenyl)urea]
> 10 µM: all assays above

C[C@H]1COCCN1c1cc(-c2ccccn2)nc(-c2ccc(NC(=O)NCCO)cc2)n1 [Example 43, (S)-1-(2-hydroxyethyl)-3-(4-(4-(3-methylmorpholino)-6-(pyridin-2-yl)pyrimidin-2-yl)phenyl)urea]
not listed: [2]
> 10 µM: all other assays above

C[C@H]1COCCN1c1nc(-c2ccc(NC(=O)NC3CC3)cc2)cc(-c2cccnc2S(C)(=O)=O)n1 [Example 46, (S)-1-cyclopropyl-3-(4-(2-(3-methylmorpholino)-6-(2-(methylsulfonyl)pyridin-3-yl)pyrimidin-4-yl)phenyl)urea]
> 10 µM: all assays above

C[C@H]1COCCN1c1nc(-c2ccc(NC(=O)N[C@H]3CCC[C@@H]3O)cc2)cc(-c2cc(F)ccc2S(C)(=O)=O)n1 [Example 76, 1-(4-(6-(5-fluoro-2-(methylsulfonyl)phenyl)-2-((S)-3-methylmorpholino)pyrimidin-4-yl)phenyl)-3-((1S,2S)-2-hydroxycyclopentyl)urea]
> 10 µM: all assays above
